# Read-outs that look alike come from different tables or passages of the source.
# What was measured:
# [1] = system: murine endotoxic shock model; test: murine endotoxic shock model (LPS), cytokines by ELISA; assay type: in vivo, mice
# Description: The activity of compound 5 was studied in the murine endotoxic shock model. This model has been previously shown to be dependent on MIF (21). Administration of a substance which inhibits the cytokine or biological activity of MIF would be expected to result in a reduction in serum levels of cytokines such as IL-1 or IL-6. Endotoxaemia was induced by intra-peritoneal injection of lipopolysaccharide (LPS) (15 mg/kg) in 400 μl saline. Mice were treated with a saline solution (control) only, a saline solution and LPS, or LPS and compound 5 at a dose of 15 mg/kg body weight, administered by intra-peritoneal injection at 24 hours, 12 hours and 1 hour before intra-peritoneal LPS injection. After 1.5 hours mice were humanely killed by CO2 inhalation then neck dislocation. Serum was obtained from blood obtained by cardiac puncture prior to death and measured for cytokines including interleukin 1 (IL-1) and interleukin 6 (IL-6) by ELISA. The production of IL-1 and IL-6 has been previously shown to be dependent on MIF (22). Macrophages were obtained by lavage of the peritoneal cavity using normal saline and placed into 24 well tissue culture plates for 18 hours in RPMI/10% FCS. The cultured peritoneal macrophage supernatants were then analysed for cytokines including IL-6. The peritoneal lavage supernatants were also analysed for cytokines including IL-6.
# The effect of compound 5 was tested under a variety of conditions in animals exposed to endotoxic shock induced as above by the injection of 15 mg/kg LPS by intraperitoneal injection. In each case compounds were administered by intraperitoneal injection at a dose of 15 mg/kg. Compound 5 administration was associated with reductions in serum IL-1, IL-6, and TNF concentration whether administered by intraperitoneal injection (IP) or by oral gavage, and under a variety of administration regimens.
# [2] = system: MIF-induced proliferation of S112 human dermal fibroblasts; test: dermal fibroblast proliferation induced by recombinant MIF; assay type: cell-based; conditions: compound 0.013 μM
# Description: The activity of compound 5 was studied in a bioassay utilising MIF-induced proliferation of human dermal fibroblasts. S112 human dermal fibroblasts were propagated in RPMI/10% foetal calf serum (FCS). Prior to experimentation, cells were seeded at 10^5 cells/ml in RPMI/0.1% 13SA for 18 hours. At time point zero, culture medium was replaced with RPMI/10% FCS and treatments administered. Cells were treated with recombinant human macrophage migration inhibitory factor (MIF) 50 ng/ml and/or compound 5 at a 1-1000 molar ratio to the concentration of MIF. At a time point 30 hours later, cells were pulsed with 1 μCi/well of ^3H-thymidine. At a time point 48 hours after commencement of the experiment, cells were harvested using a semi-automated cell harvester. The radioactivity incorporated into DNA was determined by liquid scintillation counting, with results expressed as [^3H] thymidine incorporation.
# [3] = system: antigen-specific T cell activation; test: antigen-specific (mBSA) activation of splenic T lymphocytes, 3H-thymidine incorporation; assay type: cell-based, mice; conditions: for EC50: Mus musculus, T-cell, read-out: EC50, inhibition of T cell activation
# Description: C57BL6/J male mice, aged 7-10 weeks old, were immunised with 200 μg of methylated bovine serum albumin (mBSA) dissolved in 20 μL of saline, emulsified in 200 μL of Freund's complete adjuvant (FCA) by subcutaneous injection. Seven (7) days later mice received a booster immunisation with 100 μg mBSA in 10 μL saline plus 100 μL FCA by subcutaneous injection. After a further seven (7) days mice were killed and spleens collected aseptically into Hanks buffered saline solution (HBSS). A single cell suspension was prepared in Petri dishes by flushing DMEM using a 26G needle and 2 mL syringe. The resulting cell suspension was centrifuged for 5-7 minutes and supernatant discarded. Erythrocytes were lysed using a solution containing 0.579% NH4Cl, 0.000037% EDTA, and 0.1% NaHCO3 in a 37° C. water bath. Tubes were then filled with DMEM and centrifuged for 5-7 minutes. The cell-containing pellet was then resuspended in DMEM containing 5% fetal calf serum TICS) and 0.05% 2-mercapto-ethanol at a concentration of 1×10^6 cells/mL and plated at 1×10^5 cells/well in 96-well plastic tissue culture plates. Test substances (compound or vehicle) were added and incubated for 1 hour in a 37° C., 5% CO2 incubator. The specific stimulating antigen, mBSA, was then added at 10-50 μg/ml and plates incubated for 30 hours in a 37° C., 5% CO2 incubator. Tritiated ^3H-thymidine was then added at a concentration of 0.5 μCi/well for a further 18 hours. Cells were harvested on a Packard cell harvester, and the harvested material added to 750 μL/tube scintillation fluid. Scintillation counts were read on a Wallac beta-emission counter.
# The concentration at which T cell activation was suppressed by 50% compared to vehicle-only-treated cells (EC50) was calculated using Prism® software. […] Further compounds were also tested for their ability to inhibit antigen-specific T cell activation as a marker of the inhibition of the cytokine or biological activity of MIF using this assay. Table 5 lists the EC50 for each compound in this assay, performed with concentrations of mBSA of either 50 or 10 μg/ml.
structure (smiles),measurement,setting,value
CCCCCOC(=O)c1ccc2[nH]c(=O)[nH]c2c1 [Compound 5],serum IL-1 concentration,"[1]; FIG. 5, LPS alone vs LPS with compound 5",marked reduction
same,"Serum IL-1 at 1.5 h, LPS + cpd","[1]; IP injection 15 mg/kg at −24, −6, −1 h, LPS alone 42.49",39.82
same,"Serum IL-1 at 6 h, LPS + cpd","[1]; IP injection 15 mg/kg at −24, −6, −1 h, LPS alone 786.6",170.2
same,"Serum IL-1 at 1.5 h, LPS + cpd","[1]; IP injection 15 mg/kg at −24, −12, −1 h, LPS alone 484.8",283.8
same,"Serum IL-6 at 1.5 h, LPS + cpd","[1]; IP injection 15 mg/kg at −24, −12, −1 h, LPS alone 92790",75260
same,"Serum IL-6 at 6 h, LPS + cpd","[1]; IP injection 15 mg/kg at −1 h, LPS alone 215100",150300
same,"Serum IL-1 at 1.5 h, LPS + cpd","[1]; IP injection 15 mg/kg at −18 h, LPS alone 301.5",105.9
same,"Serum TNF at 1.5 h, LPS + cpd","[1]; IP injection 15 mg/kg at −18 h, LPS alone 4263",2422
same,Serum IL-6,"[1]; LPS 15 mg/kg IP, compound 15 mg/kg IP at 24, 12 and 1 hour before LPS, 1.5 hours after LPS, LPS only 261.05",99.78 ng/mL
same,Peritoneal lavage IL-6,"[1]; LPS 15 mg/kg IP, compound 15 mg/kg IP at 24, 12 and 1 hour before LPS, LPS only 16.11",7.07 ng/mL
same,Cultured peritoneal macrophage IL-6,"[1]; LPS 15 mg/kg IP, compound 15 mg/kg IP at 24, 12 and 1 hour before LPS, macrophages cultured 18 hours, LPS only 3.40",1.33 ng/mL
same,"serum IL-1, IL-6, and TNF concentration","[1]; LPS 15 mg/kg, IP or oral gavage, variety of administration regimens",reductions
same,"Serum IL-1 at 1.5 h, LPS + cpd","[1]; Oral gavage 5 mg/kg at −24 h, −1 h, LPS alone 237.0",182.5
same,"Serum IL-1 at 1.5 h, LPS + cpd","[1]; Oral gavage 15 mg/kg at −24, −6, −1 h, LPS alone 103.7",47.1
same,"Serum IL-1 at 1.5 h, LPS + cpd","[1]; Oral gavage 15 mg/kg at −24 h, LPS alone 292.0",152.6
same,"Serum IL-6 at 1.5 h, LPS + cpd","[1]; Oral gavage 15 mg/kg at −24 h, LPS alone 121100",80250
same,effect on proliferation of S112 cells treated with recombinant human MIF,[2]; FIG. 12,marked and statistically significant inhibitory effect
same,inhibition at 0.013 µM,"[2]; Homo sapiens, Fibroblast, read-out: % inhibition of MIF-induced proliferation, rhMIF 50 ng/ml, S112, P < 0.001",98%
same,effect on antigen-specific T cell activation,"[3]; FIG. 8, mBSA 50 μg/mL, increasing concentrations",dose-dependent and statistically significant inhibitory effect
same,EC50,[3]; mBSA 10 μg/ml,15.3 µM
same,EC50,[3]; mBSA 50 μg/ml,13.8 µM

# From US7709514B2, “Therapeutic molecules and methods-1” (Cortical Pty Ltd, priority 2002, dated 2010)
